Measurements from US20170334934A1, “Macrocyclic picolinamides as fungicides” (DOW AGROSCIENCES LLC, priority 2014, published 2017).
Like-named read-outs stand apart in the source and are kept apart here.

Columns and labels:
[1] = tested on: Mycosphaerella graminicola; Anamorph: Zymoseptoria tritici; test: Fungicidal activity: Leaf Blotch of Wheat (SEPTTR), wheat seedlings; format: in vivo; settings: wheat; for pest or weed control at 121.5 g/ha: Low Volume (121.5 g/H); for pest or weed control at 100 µg/mL: High Volume (100 ppm)
Description: Example A: Evaluation of Fungicidal Activity: Leaf Blotch of Wheat (Mycosphaerella graminicola; Anamorph: Zymoseptoria tritici; Bayer Code […]) Technical grades of materials were dissolved in acetone, which were then mixed with nine volumes of water containing 110 ppm Triton X-100. The fungicide solutions were applied onto wheat seedlings using an automated booth sprayer to run-off. All sprayed plants were allowed to air dry prior to further handling. All fungicides were evaluated using the aforementioned method for their activity vs. all target diseases, unless stated otherwise. Wheat leaf blotch and brown rust activity were also evaluated using track spray applications, in which case the fungicides were formulated as EC formulations, containing 0.1% Trycol 5941 in the spray solutions. Wheat plants (variety Yuma) were grown from seed in a greenhouse in 50% mineral soil/50% soil-less Metro mix until the first leaf was fully emerged, with 7-10 seedlings per pot. These plants were inoculated with an aqueous spore suspension of Zymoseptoria tritici either prior to or after fungicide treatments. After inoculation the plants were kept in 100% relative humidity (one day in a dark dew chamber followed by two to three days in a lighted dew chamber at 20° C.) to permit spores to germinate and infect the leaf. The plants were then transferred to a greenhouse set at 20° C. for disease to develop. When disease symptoms were fully expressed on the 1st leaves of untreated plants, infection levels were assessed on a scale of 0 to 100 percent disease severity. Percent disease control was calculated using the ratio of disease severity on treated plants relative to untreated plants.

Puccinia triticina = test: Fungicidal activity: Wheat Brown Rust (PUCCRT), wheat seedlings; format: in vivo; settings: for pest or weed control at 121.5 g/ha: Low Volume (121.5 g/H); for pest or weed control at 100 µg/mL: High Volume (100 ppm)
Description: Technical grades of materials were dissolved in acetone, which were then mixed with nine volumes of water containing 110 ppm Triton X-100. The fungicide solutions were applied onto wheat seedlings using an automated booth sprayer to run-off. All sprayed plants were allowed to air dry prior to further handling. All fungicides were evaluated using the aforementioned method for their activity vs. all target diseases, unless stated otherwise. Wheat leaf blotch and brown rust activity were also evaluated using track spray applications, in which case the fungicides were formulated as EC formulations, containing 0.1% Trycol 5941 in the spray solutions. Wheat plants (variety Yuma) were grown from seed in a greenhouse in 50% mineral soil/50% soil-less Metro mix until the first leaf was fully emerged, with 7-10 seedlings per pot. These plants were inoculated with an aqueous spore suspension of Zymoseptoria tritici either prior to or after fungicide treatments. After inoculation the plants were kept in 100% relative humidity (one day in a dark dew chamber followed by two to three days in a lighted dew chamber at 20° C.) to permit spores to germinate and infect the leaf. The plants were then transferred to a greenhouse set at 20° C. for disease to develop. When disease symptoms were fully expressed on the 1st leaves of untreated plants, infection levels were assessed on a scale of 0 to 100 percent disease severity. Percent disease control was calculated using the ratio of disease severity on treated plants relative to untreated plants. Example B: Evaluation of Fungicidal Activity: Wheat Brown Rust (Puccinia triticina; Synonym: Puccinia recondita f. sp. tritici; Bayer Code PUCCRT) Wheat plants (variety Yuma) were grown from seed in a greenhouse in 50% mineral soil/50% soil-less Metro mix until the first leaf was fully emerged, with 7-10 seedlings per pot. These plants were inoculated with an aqueous spore suspension of Puccinia triticina either prior to or after fungicide treatments. After inoculation the plants were kept in a dark dew room at 22° C. with 100% relative humidity overnight to permit spores to germinate and infect the leaf. The plants were then transferred to a greenhouse set at 24° C. for disease to develop. Fungicide formulation, application and disease assessment followed the procedures as described in the Example A.

[2] = 24 h, 1 Day Protectant, read-out: SEPTTR disease control rating, 1DP
[3] = 72 h, 3 Day Curative, read-out: SEPTTR disease control rating, 3DC
[4] = 24 h, 1 Day Protectant, read-out: PUCCRT disease control rating, 1DP
[5] = 72 h, 3 Day Curative, read-out: PUCCRT disease control rating, 3DC

Row | SMILES | pest or weed control at 121.5 g/ha [1, 2] [%] | pest or weed control at 121.5 g/ha [1, 3] [%] | pest or weed control at 121.5 g/ha (Puccinia triticina; [4]) [%] | pest or weed control at 121.5 g/ha (Puccinia triticina; [5]) [%] | pest or weed control at 100 µg/mL [1, 2] [%] | pest or weed control at 100 µg/mL [1, 3] [%] | pest or weed control at 100 µg/mL (Puccinia triticina; [4]) [%] | pest or weed control at 100 µg/mL (Puccinia triticina; [5]) [%]
1 | COc1ccnc(C(=O)N[C@H]2CCO[C@H](Cc3ccc(F)cc3)[C@@H](OC(=O)C(C)C)[C@H](C)OC2=O)c1OC(C)=O [Compound 76] | > 70 | > 70 | > 70 | > 70 |  |  |  | 
2 | C=C(C)CO[C@H]1[C@H](C)OC(=O)[C@@H](NC(=O)c2nccc(OC)c2OCOC(C)=O)CCO[C@@H]1CC [Compound 88] | < 70 | < 70 | > 70 | > 70 |  |  |  | 
3 | COc1ccnc(C(=O)N[C@H]2CCO[C@H](CC3CCCC3)[C@@H](Oc3ccccc3)[C@H](C)OC2=O)c1O [Compound 58] |  |  |  |  | > 70 | > 70 | > 70 | > 70
4 | C=CCO[C@H]1[C@H](C)OC(=O)[C@@H](NC(=O)c2nccc(OC)c2OC(C)=O)CCO[C@@H]1Cc1ccc(F)cc1 [Compound 80] | < 70 | < 70 | < 70 | < 70 |  |  |  | 
5 | CC[C@H]1OCC[C@H](NC(=O)c2nccc(OC)c2OC(C)=O)C(=O)O[C@@H](C)[C@@H]1Oc1ccccc1 [Compound 94] | > 70 | > 70 | > 70 | > 70 |  |  |  | 
6 | COc1ccnc(C(=O)N[C@H]2CCO[C@H](Cc3ccccc3)[C@@H](OCC(C)C)[C@H](C)OC2=O)c1OCOC(C)=O [Compound 72] | > 70 | > 70 | > 70 | > 70 |  |  |  | 
7 | CC[C@H]1OCC[C@H](NC(=O)c2nccc(OC)c2O)C(=O)O[C@@H](C)[C@@H]1OC(=O)C(C)C [Compound 65] |  |  |  |  | < 70 | < 70 | > 70 | > 70
8 | COc1ccnc(C(=O)N[C@H]2CCOC[C@@H](OCC(C)C)[C@H](C)OC2=O)c1OCOC(C)=O [Compound 97] | > 70 | > 70 | > 70 | > 70 |  |  |  | 
9 | CC[C@H]1OCC[C@H](NC(=O)c2nccc(OC)c2O)C(=O)O[C@@H](C)[C@@H]1OCC(C)C [Compound 62] |  |  |  |  | < 70 | > 70 | > 70 | > 70
10 | COc1ccnc(C(=O)N[C@H]2CCO[C@H](Cc3ccccc3)[C@@H](Oc3ccccc3)[C@H](C)OC2=O)c1OC(C)=O [Compound 83] | > 70 | > 70 | > 70 | > 70 |  |  |  | 
11 | CC[C@H]1OCC[C@H](NC(=O)c2nccc(OC)c2OCOC(C)=O)C(=O)O[C@@H](C)[C@@H]1OCC(C)C [Compound 89] | > 70 | > 70 | > 70 | > 70 |  |  |  | 
12 | COc1ccnc(C(=O)N[C@H]2CCO[C@H](Cc3ccccc3)[C@@H](Oc3ccccc3)[C@H](C)OC2=O)c1O [Compound 57] |  |  |  |  | > 70 | > 70 | > 70 | > 70
13 | COc1ccnc(C(=O)N[C@H]2CCO[C@H](Cc3ccc(F)cc3)[C@@H](OCC(C)C)[C@H](C)OC2=O)c1O [Compound 53] |  |  |  |  | > 70 | > 70 | > 70 | > 70
14 | C=C(C)CO[C@H]1[C@H](C)OC(=O)[C@@H](NC(=O)c2nccc(OC)c2OC(C)=O)CCO[C@@H]1CC [Compound 92] | < 70 | < 70 | > 70 | > 70 |  |  |  | 
15 | COc1ccc(C[C@H]2OCC[C@H](NC(=O)c3nccc(OC)c3O)C(=O)O[C@@H](C)[C@@H]2OCC2CC2)cc1 [Compound 59] |  |  |  |  | < 70 | > 70 | > 70 | > 70
16 | CC[C@H]1OCC[C@H](NC(=O)c2nccc(OC)c2O)C(=O)O[C@@H](C)[C@@H]1Oc1ccccc1 [Compound 63] |  |  |  |  | > 70 | > 70 | > 70 | > 70
17 | COc1ccc(C[C@H]2OCC[C@H](NC(=O)c3nccc(OC)c3O)C(=O)O[C@@H](C)[C@@H]2Oc2ccccc2)cc1 [Compound 60] |  |  |  |  | > 70 | > 70 | > 70 | > 70
18 | CCCO[C@H]1[C@H](C)OC(=O)[C@@H](NC(=O)c2nccc(OC)c2OCOC(C)=O)CCO[C@@H]1Cc1ccc(F)cc1 [Compound 79, ((2-(((2R,3S,4S,7S)-2-(4-fluorobenzyl)-4-methyl-6-oxo-3-propoxy-1,5-dioxonan-7-yl)carbamoyl)-4-methoxypyridin-3-yl)oxy)methyl acetate] | > 70 | > 70 | > 70 | > 70 |  |  |  | 
19 | COc1ccnc(C(=O)N[C@H]2CCO[C@H](Cc3ccc(F)cc3)[C@@H](OC(=O)C(C)C)[C@H](C)OC2=O)c1OCOC(C)=O [Compound 74] | > 70 | > 70 | > 70 | > 70 |  |  |  | 
20 | COc1ccnc(C(=O)N[C@H]2CCOC[C@@H](OCC(C)C)[C@H](C)OC2=O)c1O [Compound 67] |  |  |  |  | > 70 | > 70 | > 70 | > 70
21 | COc1ccnc(C(=O)N[C@H]2CCOC[C@@H](Oc3ccccc3)[C@H](C)OC2=O)c1OCOC(C)=O [Compound 99] | < 70 | < 70 | > 70 | > 70 |  |  |  | 
22 | COc1ccnc(C(=O)N[C@H]2CCO[C@H](Cc3ccc(F)cc3)[C@@H](OC(=O)C(C)C)[C@H](C)OC2=O)c1O [Compound 54] |  |  |  |  | > 70 | > 70 | > 70 | > 70
23 | COc1ccnc(C(=O)N[C@H]2CCO[C@H](Cc3ccc(F)cc3)[C@@H](Oc3ccccc3)[C@H](C)OC2=O)c1OC(C)=O [Compound 75] | > 70 | < 70 | > 70 | > 70 |  |  |  | 
24 | COc1ccnc(C(=O)N[C@H]2CCO[C@H](Cc3ccc(F)cc3)[C@@H](OCC(C)C)[C@H](C)OC2=O)c1OC(C)=O [Compound 77] | > 70 | > 70 | > 70 | > 70 |  |  |  | 
25 | COc1ccnc(C(=O)N[C@H]2CCOC[C@@H](OCCCC(F)(F)F)[C@H](C)OC2=O)c1O [Compound 68] |  |  |  |  | < 70 | < 70 | > 70 | > 70
